Test results published in PubChem BioAssay AID179 (DTP/NCI, 2004).
Calls of active or inactive are those of the source.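 The calls were made as follows: active = compounds giving half or more protection of infected cells from virus-caused growth loss, again on retest; inactive = the rest.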 Where a SMILES comes first, the peptide text is derived from it. The star is where a group is joined. Cbz = O=C(OCc1ccccc1)*

Test system: CEM cells HIV-1 protection, formazan growth assay
Test: NCI AIDS Antiviral Assay
Settings: for IC50: measured here: growth of uninfected CEM cells
Method in brief: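 Five concentrations of each compound were applied to infected and uninfected human CEM cells. Protection from HIV-1 was judged from growth measured with a soluble formazan assay.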

| SMILES | outcome | EC50 [µM] | IC50 [µM] |
| --- | --- | --- | --- |
| O=C(NCCCCCCNC(=O)NC1OCC(O)C(O)C1O)NC1OCC(O)C(O)C1O (centres undefined) | inactive |  |  |
| O=C(O)/C=C/S(=O)(=O)O |  | > 200 | > 200 |
| O=C1/C(=C/c2cccc([N+](=O)[O-])c2)COc2ccccc21 |  | > 12.9 | 1.51 |
| COC(=O)NC1(NC(=O)OC)NC(=O)c2cc(OC)c(OC)cc2N1 |  | > 200 | 12.9 |
| CSc1nc(N)n(C(=O)c2ccccc2Br)n1 |  | > 417 | > 417 |
| COC(=O)Oc1nn(C(=O)OC)c(=O)c2ccccc12 (tested in a mixture with another compound) |  | > 200 | > 200 |
| COc1ccc2c(c1)N(C)CCCC2=O |  | > 200 | 151 |
| COc1ccc2c(OC)c3ccoc3nc2c1O |  | > 50.1 | 32.4 |
| O=C1CCCC(=O)N1n1c(Cc2ccc(Cl)cc2)n[nH]c1=O |  | > 200 | > 200 |
| O=C(O)C1(C(=O)O)CC1(C(=O)O)C(=O)O | inactive |  |  |
| CCOC(=O)c1ccc(N2C(=S)N(C(=O)c3ccccc3)C(=Nc3ccccc3)C2=Nc2ccccc2)cc1 |  | > 200 | 2.82 |
| Cc1ccc(S(=O)(=O)/C(C#N)=C/NC(=S)Nc2ccc(S(N)(=O)=O)cc2)cc1 | inactive |  |  |
| O=C(O)c1ccccc1-n1nc(C(=O)O)c(N=Nc2ccc(/C=C/c3ccc(N=Nc4c(C(=O)O)nn(-c5ccccc5C(=O)O)c4O)cc3S(=O)(=O)O)c(S(=O)(=O)O)c2)c1O |  | > 0.977 | > 0.977 |
| COc1ccc2c(c1)CCc1c(C(C)=O)c3ccccc3n1C2 |  | > 58.9 | > 58.9 |
| CC1(OCc2ccccc2)C(=O)N2C1NCC2(C)C (centres undefined) |  | > 251 | 117 |
| COC(=O)CC1C(COC(C)=O)OC(n2ccc(=O)[nH]c2=O)C1OC(C)=O (centres undefined) |  | 0.537 | > 200 |
| C=CC(=O)N1C/C(=C\c2ccc(N(C)C)cc2)C(=O)/C(=C/c2ccc(N(C)C)cc2)C1 |  | > 200 | 60.3 |
| CCOC(=O)/C(=C\c1ccc(Cl)cc1)[Se]c1ccccc1 |  | > 97.7 | > 97.7 |
| COc1ccccc1C1C(C(=O)Nc2ccccc2)=C(C)NC(C)=C1C(=O)Nc1ccccc1 |  | > 21.9 | > 21.9 |
| NC1=NN(c2ccc(Br)cc2)C2C=CC=CN12 (centres undefined) |  | > 200 | 151 |
| CCn1ccnc1.CCn1ccnc1.O=C([O-])CC(O)C(=O)[O-].[Pt+2] (centres undefined) |  | > 200 | > 200 |

| SMILES | outcome | EC50 [µM] | IC50 [µM] |
| --- | --- | --- | --- |
| O=S(=O)([O-])c1ccc2c(N=Nc3ccc(/C=C\c4ccc(N=Nc5c([O-])ccc6cc(S(=O)(=O)[O-])ccc56)cc4S(=O)(=O)[O-])c(S(=O)(=O)[O-])c3)c([O-])ccc2c1.[Cu+2].[Cu+2].[Na+] |  | > 19.1 | 15.8 |
| c1ccc(CSc2ccc3nncc(SCc4ccccc4)c3c2)cc1 |  | > 57.5 | > 57.5 |
| O=c1[nH]c(=S)[nH]c2[nH]c(=S)[nH]c12 |  | > 200 | > 200 |
| C=CC(=O)c1ccc2c(c1)OCCOCCOCCOCCOCCO2 |  | > 676 | 7.08 |
| C/C(=N\NC(=S)Nc1ccc(C(=O)O)cc1)c1ccccn1 |  | > 110 | 18.2 |
| Cn1c(=O)c2c(nc3n(Cc4ccccc4)c(=O)c(NCCBr)cn23)n(C)c1=O |  | > 126 | 49 |
| O=C1c2ccccc2C(=O)N1CCCC[P+](c1ccccc1)(c1ccccc1)c1ccccc1 |  | > 200 | 15.5 |
| COC1(OC)CC2CCCCC2=C(C)N1S(=O)(=O)c1ccccc1 (centres undefined) | inactive |  |  |
| OC(Cc1ccc2ccccc2c1)CN1CCC(c2ccccc2)CC1 (centres undefined) |  | > 93.3 | 37.2 |
| CCOC(=O)c1[nH]c2cccc3c2c1CC[C@H](NC(=O)C(F)(F)F)C3=O |  | > 200 | > 200 |
| COc1ccc(S(=O)(=O)N/N=C/c2cc(I)cc([N+](=O)[O-])c2O)cc1OC |  | > 355 | 60.3 |
| O=[N+]([O-])c1ccccc1Nc1ccccc1 | inactive |  |  |
| N.N.N.N.O=C([O-])C(Cl)Cl.O=C([O-])C(Cl)Cl.[Co+3].[O-][Cl+3]([O-])([O-])[O-] | inactive |  |  |
| O=C(NN1C(=O)C(Cl)C1c1ccccc1O)c1ccccc1O (centres undefined) |  | > 56.2 | 8.32 |
| c1ccc(C[P+](c2ccccc2)(c2ccccc2)c2ccccc2)cc1 |  | > 200 | 3.89 |
| COc1ccc2nc(/N=C/N(C)C)sc2c1 |  | > 200 | > 200 |
| CC1=CSC2=NCCN12 |  | > 200 | > 200 |
| N#C/C(=C\c1ccc(F)cc1)c1nc(-c2cc3ccccc3oc2=O)cs1 | inactive |  |  |
| COC(=O)C1(CCSc2ccccc2)CCCC1=O (centres undefined) |  | > 13.5 | > 13.5 |
| COC1CCC(O)C(CO)O1 (centres undefined) | inactive |  |  |
| COC(=O)C(Cc1ccccc1)NP(=O)(O)OCC1OC(n2cc(Br)c(=O)[nH]c2=O)CC1O (centres undefined) |  | > 200 | > 200 |

| SMILES | outcome | EC50 [µM] | IC50 [µM] |
| --- | --- | --- | --- |
| CCOC(=O)C(=O)Nc1ccccc1OCC |  | > 209 | > 209 |
| CC(=O)OC[C@@H](COC(=O)/C=C/c1ccc(O)cc1)OC1OC(CO)C(O)C(O)C1O (some centres undefined) | inactive |  |  |
| O=c1cccc2n1CC1CNCC2C1 (centres undefined) |  | > 200 | > 200 |
| CCC[CH2][Sn]1([CH2]CCC)[O]C(=O)c2cccnc2[S]1 |  | > 33.9 | 0.631 |
| CCOC(=O)C(NC(=O)c1ccccc1)[CH](C)[Sn]([c]1ccccc1)([c]1ccccc1)[c]1ccccc1 (centres undefined) |  | > 200 | 13.5 |
| COc1ccccc1C1ON=C(c2ccc([N+](=O)[O-])cc2)N1C12CC3CC(CC(C3)C1)C2 (centres undefined) |  | > 200 | > 200 |
| Cc1ccc(O)c(-c2cscn2)c1 |  | > 200 | 107 |
| Cc1ccc(N=C2SC(c3ccc(C)cc3)(c3ccc(C)cc3)c3ccccc32)cc1 |  | > 200 | > 200 |
| NCCn1cnc2nc(NC(=O)c3ccccc3)[nH]c(=O)c21 |  | > 166 | 91.2 |
| C[N+]1(CCCCN2c3ccccc3Sc3cc(N=[N+]=[N-])ccc32)CCN(C(=O)CCNC(=O)Cc2ccc(C(=O)c3ccccc3)cc2)CC1 |  | > 100 | 15.5 |
| CCCCCCCCCCCCCCCCCCNC(=O)OCC(CNS(=O)(=O)CCC[n+]1cccc2ccccc21)COC (centres undefined) |  | > 200 | 0.676 |
| CC(C)c1cccc(C(C)C)c1NC(=O)C(=O)C(C(=O)c1ccc2ccccc2c1)C1OC(=O)c2ccccc21 (centres undefined) |  | > 67.6 | 34.7 |
| CN(C)c1ccc(N=O)cc1 |  | > 2 | 1.12 |
| O=C(O)C(SC1=NNC2(C(=O)N1)c1ccccc1-c1ccccc12)SC1=NNC2(C(=O)N1)c1ccccc1-c1ccccc12 | inactive |  |  |
| CCOC(=O)CCC(NC(=O)C(CC(=O)OC)NC(=O)C(CC(=O)OC)NC(=O)C(CC(=O)OC)NC(=O)C(CC(=O)OC)NC(=O)OCc1ccccc1)C(=O)NC(CCC(=O)OCC)C(=O)NC(CCC(=O)OCC)C(=O)OCC (centres undefined) (Cbz-D(OMe)D(OMe)D(OMe)D(OMe)E(OEt)E(OEt)E(OEt)-OEt; configuration not given here) |  | > 50.1 | > 50.1 |
| O=C(O)c1cc(C(=O)O)c(C(=O)O)c(C(=O)O)c1C(=O)O | inactive |  |  |
| C[C@H]1CC[C@@H]2[C@@H](C)[C@H]3[C@H](C[C@H]4[C@@H]5CC=C6C[C@@H](O)CC[C@]6(C)[C@H]5C[C@H](O)[C@]34C)N2C1 | inactive |  |  |
| CCOC(=O)C(NC(=O)CC)(Nc1ccc(S(=O)(=O)Nc2ncccn2)cc1)C(F)(F)F (centres undefined) |  | > 200 | > 200 |
| CCC(=O)CCC1=Nc2nnc(CCCCc3nnc4n3C(=O)C(CCC(=O)CC)=N4)n2C1=O |  | 427 | 537 |
| CC(C(=O)O)c1cnn(-c2ccccc2)c1-n1cccc1 (centres undefined) | inactive |  |  |
| COC(=O)C1=C(O)C(C(=O)OC)C2(C3CC=CC3)C(C(=O)OC)=C(O)C(C(=O)OC)C12 (centres undefined) |  | > 214 | > 214 |

| SMILES | outcome | EC50 [µM] | IC50 [µM] |
| --- | --- | --- | --- |
| O=S1(=O)CCCc2c1ccc1ccccc21 |  | > 200 | > 200 |
| CSc1ccc(Nc2cc(=O)[nH]c(=O)[nH]2)cc1 |  | > 200 | > 200 |
| C/C=C/CC(C)[C@@H](O)[C@H](NC)C(=O)O (some centres undefined) | inactive |  |  |
| O=C(CC(=O)C(=O)Nc1ccccc1)CC(c1ccccc1)c1c(O)c2ccccc2oc1=O (centres undefined) |  | > 550 | 263 |
| C(=NC12CC3CC(CC(C3)C1)C2)C1CCCCC1 |  | > 200 | > 200 |
| COC(=O)C(CCCCCCCC(C(=O)OC)c1nc2n(c1O)C(=N)N=N2)c1nc2n(c1O)C(=N)N=N2 (centres undefined) |  | > 7.41 | > 7.41 |
| CNCCSS(=O)(=O)CCNC |  | 214 | 457 |
| CC12CCC(=O)N1c1ccc(Cl)cc1N2 (centres undefined) |  | > 115 | > 115 |
| COc1ccc(NC(=O)/C(=C/N2C(=O)/C(=C/c3ccc(OC)c(OC)c3)NC2=S)C(C)=O)cc1 |  | > 200 | 23.4 |
| c1ccc(C2(c3ccccc3)S/C(=C3/SC(c4ccccc4)(c4ccccc4)c4ccccc43)c3ccccc32)cc1 | inactive |  |  |
| Cc1ccc2c(c1CCCC(C)(C)O)C(=O)C(=O)C(C(C)C)=C2O |  | > 380 | 132 |
| O=c1c(O)c(-c2ccccc2)oc2ccccc12.[Zn+2] |  | > 200 | 13.2 |
| O=C1C(=Cc2ccc(Cl)c(Cl)c2)C([O-])=C([P+](c2ccccc2)(c2ccccc2)c2ccccc2)C([O-])=C1[P+](c1ccccc1)(c1ccccc1)c1ccccc1 |  | > 100 | 1.23 |
| CC1=NN(C(=O)CC(=O)NC(=O)CC(=O)Nc2ccccc2F)C(=O)C1N=Nc1ccc([N+](=O)[O-])cc1 (centres undefined) |  | > 70.8 | 44.7 |
| Cc1cn(C2CC(NO)C(CO)O2)c(=O)[nH]c1=O (centres undefined) |  | 38.9 | 178 |
| Cc1ccc(-c2c(C#N)c(S)n(NS(=O)(=O)c3ccc(C)cc3)c(=O)c2C#N)cc1 |  | > 200 | 11.7 |
| CC(=O)OCC1OC(n2c(C)c(C(C)=O)c(-c3ccc(Cl)cc3)c(C#N)c2=S)C(OC(C)=O)C(OC(C)=O)C1OC(C)=O (centres undefined) |  | > 200 | 148 |
| C=CCCCCCCCCC/C=C1\C[C@H](O)COC1=O |  | > 93.3 | > 93.3 |
| NS(=O)(=O)c1ccc(NC(=O)/C=C/C(=O)O)cc1 |  | > 200 | > 200 |
